Results taken from US9388419B2 (The Regents of the University of Colorado, a body corporate, priority 2009, dated 2016).
Read-outs that look alike come from different tables or passages of the source.

Columns and labels:
E. coli = format: cell-based, Escherichia coli; details: anaerobic; strain BX_00319.0: BW25113 wild type + pK223-aroH; M9 + Amp 100 μg/mL + 1 mM IPTG
Method: For MIC evaluations, the final results are expressed in chemical agent concentrations determined by analysis of the stock solution by HPLC (i.e., see Subsection Mb).
The minimum inhibitory concentration (MIC) was determined anaerobically in a 96 well-plate format. […] Media supplements were added according to levels reported in the Supplements Table, where specified. Overnight cultures of strains were grown in triplicate in 5 mL LB (with antibiotic where appropriate). A 1% (v/v) inoculum was introduced into a 5 ml culture of M9 minimal media.

[1] = tested on: wild-type E. coli BW25113; experiment: Toleragram / OD600 / doublings at 3HP 0-50 g/L, E. coli anaerobic; format: cell-based, Escherichia coli; details: control E. coli, anaerobic conditions, 24 hours
Method: (§1) Overnight cultures of wild-type E. coli BW25113 were grown in triplicate in 5 mL standard LB medium. 100 uL of overnight cultures were used to inoculate triplicate 5 mL samples of M9 minimal medium+3HP, containing 47.7 mM Na2HPO4, 22 mM KH2PO4, 8.6 mM NaCl, 18.7 mM NH4Cl, 2 mM MgSO4, 0.1 mM CaCl2, and 0.4% glucose, with 3HP concentrations ranging from 0-50 g/L. Starting OD600 ranged from 0.02-0.08. Cultures were sparged with CO2 for 10 seconds, sealed, and incubated at 37 C for about 24 hours. OD600 was recorded every 1-2 hours during the first 8 hours with a final OD600 recorded at about 24 hours. For each data point the sample was opened, sampled, re-sparged with CO2, and sealed once again. Maximum specific growth rates (μmax) were calculated by determining the optimal fit of exponential trend lines with OD data for the evaluation period. Specific changes in OD600 over approximately 24 hours (Δ24hrOD600) were calculated as the difference in t=24 hr and t=0 optical density, Δ24hrOD600=(ODt=24)−(ODt=0). Specific number of doublings (Nd) were calculated by solving for N in the equation 2^N=(ODt=24)/(ODt=0).

[2] = tested on: Yeast strains (S288C background); format: cell-based, Saccharomyces cerevisiae
Method: The minimum inhibitory concentration (MIC) was determined anaerobically in a 96 well-plate format. […] A 1% (v/v) inoculum was introduced into a 5 ml culture of SD minimal media without vitamins. After the cells reached mid-exponential phase, the culture was diluted to an OD600 of 0.200. The cells were further diluted 1:5 and a 10 μL aliquot was used to inoculate each well of a 96 well plate (˜10^4 cells per well) to total volume of 100 uL. […] Plates were incubated for 72 hours at 30 C. […] Plates were sealed in biobag anaerobic chambers that contained gas generators for anaerobic conditions and incubated for 72 hours at 30 C.

[3] = tested on: wild-type E. coli BW25113; experiment: Toleragram / OD600 / doublings at 3HP 0-50 g/L, E. coli aerobic; format: cell-based, Escherichia coli; details: control E. coli, aerobic condition, FIG. 15B
Method: as §1, with “were” for “were sparged with CO2 for 10 seconds, sealed, and”, “hours, and” for “hours.”, “for” for “during”, “hours.” for “hours. For each data point the sample was opened, sampled, re-sparged with CO2, and sealed once again.”

[4] = 3-HP preparation (TCI America): behaviour of samples neutralized to pH 7.0; format: physicochemical; details: 3-HP from TCI America, ether extracted, neutralized with 10 M NaOH to pH 7.0
Text: (§2) 3-HP was obtained from TCI America (Portland, Oreg.). Significant acrylic acid and 2-oxydipropionic contamination was observed via HPLC analysis. Samples were subsequently treated by diethyl ether extraction to remove acrylic acid and a portion of the 2-oxydipropionic contaminants. Samples were then neutralized with 10 M NaOH to a final pH of 7.0. […] The working stock solution was used for the selection and MIC evaluations in this example.
as §2, with “selection, growth rates” for “selection”

[5] = Reactive extraction of 3-HP from fermentation broth with tertiary amine and co-solvents, single pass extraction efficiency; format: physicochemical
Method: Calcium chloride at 1 M was added as a flocculent to reach a final concentration of about 8.2 g/L. Thereafter the pH was adjusted to a pH of approximately 2.0 using sulfuric acid. Thereafter a volume of this modified fermentation broth was centrifuged at approximately 3,200 g for 5 minutes to yield a clarified broth and a pellet, which was discarded.
Portions of the clarified broth were then subjected to reactive extraction by mixing with a tertiary amine non-polar phase comprising various co-solvents.

[6] = Tripentylamine with Butanol (2)
[7] = Tripentylamine with Methyl ethyl ketone (4)
[8] = Tripentylamine with Methyl tert-butyl ether (5)
[9] = Tripentylamine with p-Xylene (3)

## O=C(O)CCO [3-HP, 3-hydroxypropionic acid]
E. coli
  % Increase Over Control: 33%
[1]
  cell density response to 3-HP compared with aerobic condition: relatively sharper and earlier drop
[2]; strain YX-CJR-005 (pYes2.1-Met6) versus YX-CJR-001, anaerobic
  % Increase Over Control: 50%
[2]; strain YX-CJR-008 (pyes2.1-ILV1) versus YX-CJR-001, anaerobic
  % Increase Over Control: 50%
[3]
  3-HP concentration at which a dramatic reduction in cell density (OD600) at 24 hours starts: ≥ 30 g/L
[4]
  concentration above which considerable 3-HP polymerization was observed at neutral pH: > 35 g/L
  concentration above which considerable insoluble matter was observed at neutral pH: > 35 g/L
[5]; Alamine 336 with Butanol (1)
  3-HP mass extractant: 0.59 G
  3-HP mass raffinate: 0.38 G
  % 3-HP extracted: 61%
  % 3-HP raffinate: 39%
  Total 3HP extracted: 0.59 G
[5]; [6]
  3-HP mass raffinate: 0.81 G
  % 3-HP extracted: 58%
  % 3-HP raffinate: 42%
[5]; [7]
  3-HP mass raffinate: 0.63 G
  % 3-HP extracted: 67%
  % 3-HP raffinate: 33%
[5]; [8]
  3-HP mass extractant: 0.73 G
  % 3-HP extracted: 38%
  % 3-HP raffinate: 62%
  Total 3HP extracted: 0.73 G
[5]; [9]
  3-HP mass extractant: 0.46 G
  % 3-HP extracted: 24%
  % 3-HP raffinate: 76%
  Total 3HP extracted: 0.46 G
